{
  "source": "patent US12622975B2",
  "about": "“Peptide-conjugated prodrugs” (priority 2019, dated 2026)",
  "note": "Where “and” joins values, the source holds several entries; their conditions need not be identical. Identical values can stand only once. Numbered stars: 1 amine (or outer) side, 2 acyl side, 3 side chain; on linkers, the order of the positions; unused ones are H or OH. Square brackets hold non-standard residues; d marks the D form. Peptide text beside a SMILES is read from it. * marks the point of attachment. X1 = O=C(CCC(=O)[*:2])OCC(N[*:1])C(O)c1ccc([N+](=O)[O-])cc1; Dichloroacetyl = O=C(C(Cl)Cl)*",
  "data": [
    {"system": "wild type E. coli strain (K-12)", "assay": "Bacteria culture and inhibitory activity assay (MIC)", "format": "cell-based", "details": "wild type E. coli (K-12)", "procedure": "Bacteria culture and inhibitory activity assay: Single esterase (BioH, YjfP, FrsA, YbfF, YfbB, YqiA, YeiG, or and YpfH) deletion mutants were purchased from Dharmacon Horizon Discovery (Cambridge, United Kingdom). […] Compounds were added at different concentrations.\nCompounds were added at different concentrations.", "units": {"MIC (μM)": "µM"}, "values": [
      {"smiles": "O=C(CCC(=O)OCC(NC(=O)C(Cl)Cl)C(O)c1ccc([N+](=O)[O-])cc1)NC(Cc1ccccc1)C(=O)NC(Cc1ccccc1)C(=O)O", "note": "(stereo not drawn) [Compound 3a]", "MIC (μM)": 100},
      {"smiles": "CC(NC(=O)C(C)NC(=O)CCC(=O)OCC(NC(=O)C(Cl)Cl)C(O)c1ccc([N+](=O)[O-])cc1)C(=O)O", "note": "(stereo not drawn) [Compound 1g]", "MIC (μM)": 80},
      {"smiles": "CC(NC(=O)C(C)NC(=O)CCC(=O)OCC(NC(=O)C(Cl)Cl)C(O)c1ccc([N+](=O)[O-])cc1)C(=O)O", "note": "(stereo not drawn) [Compound 1h]", "MIC (μM)": 100},
      {"smiles": "O=C(O)CNC(=O)CNC(=O)CNC(=O)CNC(=O)CNC(=O)CCC(=O)OCC(NC(=O)C(Cl)Cl)C(O)c1ccc([N+](=O)[O-])cc1", "note": "(stereo not drawn) [Compound 1q] (Dichloroacetyl-[X1]GGGGG-OH)", "MIC (μM)": 40},
      {"smiles": "CC(NC(=O)C(C)NC(=O)C(C)NC(=O)CCC(=O)OCC(NC(=O)C(Cl)Cl)C(O)c1ccc([N+](=O)[O-])cc1)C(=O)O", "note": "(stereo not drawn) [Compound 1i]", "MIC (μM)": 80},
      {"smiles": "O=C(O)CC(NC(=O)CNC(=O)CCC(=O)OCC(NC(=O)C(Cl)Cl)C(O)c1ccc([N+](=O)[O-])cc1)C(=O)O", "note": "(stereo not drawn) [Compound 2j]", "MIC (μM)": 20},
      {"smiles": "NCCCCC(NC(=O)C(CCCCN)NC(=O)C(Cc1ccccc1)NC(=O)C(Cc1ccccc1)NC(=O)CCC(=O)OCC(NC(=O)C(Cl)Cl)C(O)c1ccc([N+](=O)[O-])cc1)C(=O)O", "note": "(stereo not drawn) [Compound 2e] (Dichloroacetyl-[X1]FFKK-OH; configuration not given here)", "MIC (μM)": 200},
      {"smiles": "CC(NC(=O)C(C)NC(=O)C(C)NC(=O)CCC(=O)OCC(NC(=O)C(Cl)Cl)C(O)c1ccc([N+](=O)[O-])cc1)C(=O)O", "note": "(stereo not drawn) [Compound 1j]", "MIC (μM)": 100},
      {"smiles": "N=C(N)NCCCC(NC(=O)C(CCCNC(=N)N)NC(=O)C(Cc1ccccc1)NC(=O)C(Cc1ccccc1)NC(=O)CCC(=O)OCC(NC(=O)C(Cl)Cl)C(O)c1ccc([N+](=O)[O-])cc1)C(=O)O", "note": "(stereo not drawn) [Compound 2d] (Dichloroacetyl-[X1]FFRR-OH; configuration not given here)", "MIC (μM)": 200},
      {"smiles": "O=C(O)CNC(=O)CNC(=O)CNC(=O)CNC(=O)CCC(=O)OCC(NC(=O)C(Cl)Cl)C(O)c1ccc([N+](=O)[O-])cc1", "note": "(stereo not drawn) [Compound 1f] (Dichloroacetyl-[X1]GGGG-OH)", "MIC (μM)": 20},
      {"smiles": "N=C(N)NCCCC(NC(=O)C(CCCNC(=N)N)NC(=O)CCC(=O)OCC(NC(=O)C(Cl)Cl)C(O)c1ccc([N+](=O)[O-])cc1)C(=O)O", "note": "(stereo not drawn) [Compound 2a]", "MIC (μM)": 200},
      {"smiles": "O=C(O)CCC(NC(=O)C(CCC(=O)O)NC(=O)CCC(=O)OCC(NC(=O)C(Cl)Cl)C(O)c1ccc([N+](=O)[O-])cc1)C(=O)O", "note": "(stereo not drawn) [Compound 2g]", "MIC (μM)": ">200"},
      {"smiles": "CC(NC(=O)CNC(=O)CCC(=O)OCC(NC(=O)C(Cl)Cl)C(O)c1ccc([N+](=O)[O-])cc1)C(=O)O", "note": "(stereo not drawn) [Compound 1b]", "MIC (μM)": 20},
      {"smiles": "CNC(=O)CNC(=O)CNC(=O)CCC(=O)OCC(NC(=O)C(Cl)Cl)C(O)c1ccc([N+](=O)[O-])cc1", "note": "(stereo not drawn) [Compound 1e]", "MIC (μM)": 20},
      {"smiles": "O=C(O)CNC(=O)CCC(=O)OCC(NC(=O)C(Cl)Cl)C(O)c1ccc([N+](=O)[O-])cc1", "note": "(stereo not drawn) [CLsuG]", "MIC (μM)": ">200", "MIC (μg/mL)": "> 95.8 µg/mL and 95.8 µg/mL"},
      {"smiles": "O=C(O)CNC(=O)C(Cc1ccccc1)NC(=O)CNC(=O)CCC(=O)OCC(NC(=O)C(Cl)Cl)C(O)c1ccc([N+](=O)[O-])cc1", "note": "(stereo not drawn) [Compound 1m]", "MIC (μM)": 20},
      {"smiles": "O=C(O)CC(NC(=O)C(CC(=O)O)NC(=O)CCC(=O)OCC(NC(=O)C(Cl)Cl)C(O)c1ccc([N+](=O)[O-])cc1)C(=O)O", "note": "(stereo not drawn) [Compound 2i]", "MIC (μM)": 200},
      {"smiles": "O=C(O)CC(NC(=O)C(CC(=O)O)NC(=O)CCC(=O)OCC(NC(=O)C(Cl)Cl)C(O)c1ccc([N+](=O)[O-])cc1)C(=O)O", "note": "(stereo not drawn) [Compound 2h]", "MIC (μM)": ">200"},
      {"smiles": "O=C(O)CNC(=O)CNC(=O)C(Cc1ccccc1)NC(=O)CCC(=O)OCC(NC(=O)C(Cl)Cl)C(O)c1ccc([N+](=O)[O-])cc1", "note": "(stereo not drawn) [Compound 1n]", "MIC (μM)": 80},
      {"smiles": "CC(C)CC(NC(=O)CNC(=O)CCC(=O)OCC(NC(=O)C(Cl)Cl)C(O)c1ccc([N+](=O)[O-])cc1)C(=O)O", "note": "(stereo not drawn) [Compound 1a]", "MIC (μM)": 20}
    ]}
  ]
}
